Experimental data: patent publication EP2880993A1, “Method of achieving memory and learning improvement by the administration of sialic acid” (ABBOTT LABORATORIES, priority 2013, dated 2015)
Entries after “also recorded” stand apart in the source; their conditions may differ.

Legend:
rats [1] = test: Novel Object Recognition testing, Example 2; assay type: in vivo, Sprague-Dawley rat; conditions: 13 months old; retention test one day after acquisition phase; FIG. 5; listed as NeuAc
Description: Perirhinal cortex and hippocampus are involved in the novel object recognition task. Novel Object Recognition Testing was performed when the rats were 13 months old, which corresponds to 45-50 years old for humans. Eight animals were tested.
During a habituation phase of the test, the rats were allowed to explore an "arena" for 20 minutes per day for 3 consecutive days. The arena was a black, open plastic chamber. Next, an acquisition phase took place wherein the animals interfaced with two different objects. These object are defined as "familiar." The rats were allowed to the arena while the familiar objects were present for 10 minutes. One day after the acquisition phase, a retention test was performed on the rats, wherein one of the familiar objects was replaced by a new object. The new object is defined as "novel." The rats were allowed to explore the arena for 5 minutes during the retention test. In theory, animals that remember familiar objects will spend more time exploring the novel object than the familiar one.

rats [2] = test: Y-maze testing, Example 2 (Acquisition Trial and Retention Trial); assay type: in vivo, Sprague-Dawley rat; conditions: 14 months old
Description: A Y-maze test was performed when the rats were 14 months old, which corresponds to 50-55 years old in humans. Eight rats in each group were tested. The Y-maze testing was performed in two phases: an Acquisition Trial and a Retention Trial. Rats in each group were evaluated in the Y-maze.
During the Acquisition Trial, one of the three arms of the Y-maze was blocked, and animals were allowed to explore the other two arms for 15 minutes. The Retention Trial took place 4 hours after the Acquisition Trial. During the Retention Trial, all three arms were open and animals were allowed to explore for 5 minutes. The amount of time each animal spent at the start of the Y-maze and each arm was evaluated.

[3] = system: hippocampal CA3-CAl areas; test: Long-term potentiation (LTP) testing in vivo, Example 1; parameters: species or system Sprague-Dawley rat; conditions: PND110; for LTP response evoked by the stimulus, in words: compared with Control Group and Reference Group
Description: Long-term potentiation (LTP) measurements were performed in each of the three groups, i.e., the Control Group, the SIA-supplemented Group and the Reference Group. The testing was done while the animals were alive and at postnatal day 110 (PND110). Postnatal day 110 in rats equates to approximately 10 to 20 years of age in the lifespan of a human. Since hippocampus is a key brain structure related to LTP memory, experiments were done in order to determine the functionality of hippocampus in vivo. Long-term potentiation (LTP) is considered as the electrophysiological base of memory. In these experiments, a higher response indicates better memory potential.
The test was performed after implantation of electrodes in the hippocampal CA3-CAl areas of the rats in each group. There were seven rats per group. Each animal had 4 electrodes inserted and LTP measurements were taken from each electrode. Synaptic field potentials in the CAl area were evoked by paired (40 ms of interval) 100 µs, square, biphasic (negative-positive) pulse applied to Schaffer collaterals. For each animal, the stimulus intensity was set well below the threshold for evoking a population spike, usually 30-40% of the intensity necessary for evoking a maximum field excitatory postsynaptic potential ("fEPSP') response. An excitatory postsynaptic potential (EPSP) is a temporary depolarization of postsynaptic membrane potential caused by the flow of positively charged ions into the postsynaptic cell as a result of opening of ligand-gated ion channels.
To evoke LTP, the following high frequency stimulation (HFS) protocol was used: each animal was subjected to five 200 Hz, 100 ms trains of pulses at a rate of l/s. These trains were presented 6 times in total, at intervals of 1 minutes. After the HFS protocol, fEPSPs were recorded again for 30 minutes. Additional recordings were carried out for 15 minutes during the 3 following days.
FIG. 3 depicts the results of the Long-term Potentiation Testing. FIG. 3 illustrates the results of induction of LTP by the use of a high-frequency stimulation (HFS) protocol. Results correspond to the slope of the field excitatory postsynaptic potential ("fEPSP') evoked by a second electronic pulse (which took place 40 ms after a first pulse). Significant differences (p < 0.05) are indicated by the following signs: "*" indicates the differences between the SIA-supplemented Group and the Control Group; and "†" indicates the differences between the Reference Group and the Control Group. Average baseline fEPSP for each group was assigned the value of 100, and the rest of the fEPSP were referred to that value.

CC(=O)N[C@H]1[C@H]([C@H](O)[C@H](O)CO)OC(O)(C(=O)O)C[C@@H]1O (stereo partly shown) [SIA, N-Acetylneuraminic acid]
time spent exploring the novel object versus the familiar object (rats [1]): significantly more time visiting the novel object than the familiar one; also recorded: distinguish better between the familiar and novel object
latency to blocked arm (rats [2]; Retention Trial 4 hours after Acquisition Trial, compared with Control group, FIG. 6): lower values of latency to the blocked arm in comparison with Control group
percentage of animals visiting the previously blocked arm first (rats [2]; Retention Trial, compared with control animals, FIG. 7): significantly higher than that of the control animals
persistence of LTP response ([3]; 72 hours post stimulus): remained at high levels
fEPSP slope after high-frequency stimulation ([3]; average baseline fEPSP assigned the value of 100, FIG. 3): about 220
fEPSP slope forty-eight hours after high-frequency stimulation ([3]; baseline = 100, FIG. 3): ~160
fEPSP slope seventy-two hours after high-frequency stimulation ([3]; baseline = 100, FIG. 3): ~140
fEPSP slope twenty-four hours after high-frequency stimulation ([3]; baseline = 100, FIG. 3): about 205
LTP response evoked by the stimulus, in words [3]: strongest response
LTP response evoked by the stimulus, in words ([3]; listed as free sialic acid): significantly higher LTP response levels than those of the control group
